Measurements: ChEMBL document CHEMBL1145143, “5'-Homoaristeromycin. Synthesis and antiviral activity against orthopox viruses” (Bioorg Med Chem Lett, 2005)
In brackets after ≈: the same amount, converted by molar mass.

Assays:
[1] = Concentration required for 50% inhibition of adohcy hydrolase by the compound against monkeypox virus in vero 76 cells; type: functional, cell-based
Vaccinia virus = assay: Concentration required for 50% inhibition of adohcy hydrolase by the compound against vaccinia virus in vero 76 cells; type: functional, organism-based; settings: Orthopoxvirus vaccinia
[2] = Cytotoxic concentration against cowpox, monkeypox and vaccinia virus in vero 76 cells; type: functional; settings: Orthopoxvirus vaccinia
Cowpox virus = assay: Concentration required for 50% inhibition of adohcy hydrolase by the compound against cowpox virus in vero 76 cells; type: functional, organism-based

SMILES: Nc1ncnc2c1ncn2[C@@H]1C[C@H](CCO)[C@@H](O)[C@H]1O
- IC50 [1]: 0.12 µg/mL (≈ 0.43 µM)
- IC50 (Vaccinia virus): 1.2 µg/mL (≈ 4.3 µM)
- CC50 [2]: > 100 µg/mL
- IC50 (Cowpox virus): 0.12 µg/mL (≈ 0.43 µM)
